According to ChEMBL document CHEMBL1201862, “PubChem BioAssay data set” (2004):
The source made the active and inactive calls.

Experiments:
[1] = HEp-2 cell cytotoxicity, dose response, cytotoxicity control for RSV inhibitor project, HTS (AID 2410); assay type: functional; settings: human respiratory syncytial virus
[2] = microbe, parasite or virus in culture; assay type: functional; settings: Mycobacterium tuberculosis
[3] = M. tuberculosis growth inhibition, HTS (AID 449762); assay type: functional
[4] = cytotoxicity in COV362 ovarian cancer cells, dose response, cytotoxicity control for PAX8 inhibitor project, cell-based, plate reader, dry powder, SA12 (AID 743144); assay type: functional
[5] = NIH:OVCAR-3 ovarian cancer cell cytotoxicity, dose response, PAX8 inhibitor project, plate reader, dry powder samples (AID 743044); assay type: functional, cell-based
[6] = cytotoxicity dependent on PAX8, dose response, cell-based, plate reader, dry powder (AID 743049); assay type: functional
[7] = PAX2 cell-based inhibition, dose response, selectivity assay for PAX8 inhibitor project, plate reader, dry powder samples (AID 743048); assay type: functional;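 also: HEK293 cells carrying a WT1 promoter luciferase reporter driven by expressed Pax2; potency is for inhibition of Pax2 driven reporter signal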
Paired box protein Pax-8 = Paired box protein Pax-8 (Homo sapiens, UniProt Q06710); assay: inhibitors of PAX8-driven TPO luciferase reporter, dose response, RMG-I cells, cherry-pick (AID 687027); assay type: functional, cell-based;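 also: luciferase reporter driven by Pax8 target thyroperoxidase promoter measured by SteadyGlo luminescence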
Sequence of Paired box protein Pax-8 (Q06710 whole entry): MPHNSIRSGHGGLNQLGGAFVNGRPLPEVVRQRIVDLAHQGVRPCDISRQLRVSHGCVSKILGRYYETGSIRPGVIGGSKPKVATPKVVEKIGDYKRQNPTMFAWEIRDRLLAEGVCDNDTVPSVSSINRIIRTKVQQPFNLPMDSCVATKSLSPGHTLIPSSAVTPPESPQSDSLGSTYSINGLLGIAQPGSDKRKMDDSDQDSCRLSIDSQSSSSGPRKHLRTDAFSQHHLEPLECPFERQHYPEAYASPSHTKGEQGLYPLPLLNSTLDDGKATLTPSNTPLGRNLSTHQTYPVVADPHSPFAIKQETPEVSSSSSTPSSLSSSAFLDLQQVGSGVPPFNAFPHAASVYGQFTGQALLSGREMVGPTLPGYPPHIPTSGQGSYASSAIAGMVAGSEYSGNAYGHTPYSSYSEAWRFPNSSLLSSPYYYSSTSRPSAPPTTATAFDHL

[8] = cytotoxicity in COV434 cells, dose response, cytotoxicity control for PAX8 inhibitor project, cell-based, plate reader, dry powder, SA7 (AID 743145); assay type: functional
[9] = PAX5 activity inhibitors, dose response, selectivity assay for PAX8 inhibitor project, cell-based, plate reader, dry powder samples (AID 743047); assay type: functional;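 also: HEK293 cells carrying a Pax5 driven CD19 promoter luciferase reporter; potency of inhibitors that lower reporter luminescence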
[10] = cytotoxicity in OV-90 ovarian cancer cells, dose response, PAX8 inhibitor project, cell-based, plate reader, dry powder, SA8 (AID 743149); assay type: functional
[11] = cytotoxicity in OVCAR4 cells, dose response, cytotoxicity control for PAX8 inhibitor project, cell-based, plate reader, dry powder, SA11 (AID 743150); assay type: functional; settings: OVCAR-4
[12] = THP-1 cell cytotoxicity, dose response, cytotoxicity control for Vif-APOBEC3G degradation inhibitor project, THP-1 cells (AID 1117359); assay type: functional; settings: Human immunodeficiency virus 1, THP-1
[13] = HEK293 Cytotoxicity Assay Measured in Cell-Based System Using Plate Reader - 7071-01_Inhibitor_Dose_CherryPick_Activity_Set2.; assay type: functional
HEK293 = assay: HEK293T cell cytotoxicity, dose response, cytotoxicity control, ATP luminescence, cherry-pick samples (AID 687005); assay type: functional, cell-based; settings: Homo sapiens;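 also: cells exposed to compound for 48 hours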
HeLa = assay: HeLa cell cytotoxicity, dose response, cytotoxicity control, ATP luminescence, cherry-pick samples (AID 687004); assay type: functional, cell-based; settings: Homo sapiens
[14] = inhibitors of HRE-driven luciferase expression, dose response, ARNT-TACC3 inhibitor project, HeLa cells, luminescence, dry powder samples, 2158-08 (AID 720560); assay type: functional, cell-based
[15] = HIF luciferase reporter inhibitors, dose response, ARNT-TACC3 inhibitor project, cell-based, dry powder samples, luminescence, 2158-07 (AID 720561); assay type: functional
Fibrinogen beta chain [16] = target: T1, Fibrinogen beta chain (Homo sapiens, UniProt P02675); assay: Fluorescence polarization-based biochemical high throughput dose response assay to identify inhibitors that disrupt the binding of a cyclic peptide (Tn7) to the fibrin proteolytic product D-Dimer and fragment E complex [DD(E )].
T1 sequence (P02675 whole entry, the tested form may be a part): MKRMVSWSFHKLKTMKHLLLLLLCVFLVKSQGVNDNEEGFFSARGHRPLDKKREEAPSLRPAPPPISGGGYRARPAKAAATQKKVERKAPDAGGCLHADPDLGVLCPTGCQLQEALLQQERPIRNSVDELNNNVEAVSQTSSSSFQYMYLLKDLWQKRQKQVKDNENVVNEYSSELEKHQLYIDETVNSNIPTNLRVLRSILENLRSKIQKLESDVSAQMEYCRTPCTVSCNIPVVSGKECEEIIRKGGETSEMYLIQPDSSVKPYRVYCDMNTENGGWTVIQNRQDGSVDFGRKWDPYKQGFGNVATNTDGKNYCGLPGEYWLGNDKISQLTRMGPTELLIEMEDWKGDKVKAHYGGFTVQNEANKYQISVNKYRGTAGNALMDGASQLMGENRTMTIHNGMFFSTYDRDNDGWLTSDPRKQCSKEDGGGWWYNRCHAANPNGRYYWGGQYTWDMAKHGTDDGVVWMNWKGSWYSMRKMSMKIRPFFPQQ

Fibrinogen beta chain [17] = target: T1, Fibrinogen beta chain; assay: Fluorescence polarization-based biochemical high throughput dose response assay to identify inhibitors that disrupt the binding of a cyclic peptide (Tn6) to the fibrin proteolytic product D-Dimer and fragment E complex [DD(E )].
[18] = target: T2, Aryl hydrocarbon receptor (Homo sapiens, UniProt P35869); assay: Luminescence-based cell-based high throughput dose response assay for activators of the Aryl Hydrocarbon Receptor (AHR). [Related pubchem assays: 2796 (Primary screen (AHR activators in singlicate)), 2845 (Confirmation screen (AHR activators in triplicate)), 434939 (Counterscreen (PXR activators in triplicate)), 2804 (Summary (AHR activators))]; assay type: ADME
T2 sequence (P35869 whole entry): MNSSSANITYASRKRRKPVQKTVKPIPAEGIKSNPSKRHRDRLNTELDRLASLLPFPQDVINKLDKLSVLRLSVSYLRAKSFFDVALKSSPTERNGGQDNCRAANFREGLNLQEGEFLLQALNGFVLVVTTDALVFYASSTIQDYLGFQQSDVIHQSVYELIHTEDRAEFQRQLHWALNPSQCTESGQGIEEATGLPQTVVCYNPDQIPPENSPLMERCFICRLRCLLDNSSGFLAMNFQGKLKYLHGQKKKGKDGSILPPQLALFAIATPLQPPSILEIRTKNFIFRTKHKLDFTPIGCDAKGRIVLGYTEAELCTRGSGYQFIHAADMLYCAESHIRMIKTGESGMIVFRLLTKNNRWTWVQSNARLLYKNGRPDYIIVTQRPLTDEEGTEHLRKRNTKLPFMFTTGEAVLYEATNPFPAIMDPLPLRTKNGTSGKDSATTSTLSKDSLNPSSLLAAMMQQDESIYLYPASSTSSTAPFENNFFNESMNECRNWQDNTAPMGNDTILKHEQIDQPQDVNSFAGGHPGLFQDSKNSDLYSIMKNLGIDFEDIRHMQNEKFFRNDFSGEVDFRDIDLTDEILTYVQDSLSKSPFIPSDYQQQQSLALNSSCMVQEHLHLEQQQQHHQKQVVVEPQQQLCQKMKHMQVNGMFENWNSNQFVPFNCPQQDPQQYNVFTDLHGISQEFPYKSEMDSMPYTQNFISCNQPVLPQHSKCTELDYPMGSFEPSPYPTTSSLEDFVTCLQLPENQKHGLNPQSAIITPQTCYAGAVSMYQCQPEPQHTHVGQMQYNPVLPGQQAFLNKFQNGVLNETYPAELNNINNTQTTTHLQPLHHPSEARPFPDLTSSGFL

[19] = Plasmodium falciparum Dd2 Sybr green parasite growth Measured in Cell-Based and Microorganism Combination System Using Plate Reader - 2153-01_Inhibitor_Dose_DryPowder_Activity_Set3.; assay type: functional
Phospholipase D2 = Phospholipase D2 (Homo sapiens, UniProt O14939); assay: PLD2 Cellular Concentration Response Study.; assay type: functional
Sequence of Phospholipase D2 (O14939 whole entry): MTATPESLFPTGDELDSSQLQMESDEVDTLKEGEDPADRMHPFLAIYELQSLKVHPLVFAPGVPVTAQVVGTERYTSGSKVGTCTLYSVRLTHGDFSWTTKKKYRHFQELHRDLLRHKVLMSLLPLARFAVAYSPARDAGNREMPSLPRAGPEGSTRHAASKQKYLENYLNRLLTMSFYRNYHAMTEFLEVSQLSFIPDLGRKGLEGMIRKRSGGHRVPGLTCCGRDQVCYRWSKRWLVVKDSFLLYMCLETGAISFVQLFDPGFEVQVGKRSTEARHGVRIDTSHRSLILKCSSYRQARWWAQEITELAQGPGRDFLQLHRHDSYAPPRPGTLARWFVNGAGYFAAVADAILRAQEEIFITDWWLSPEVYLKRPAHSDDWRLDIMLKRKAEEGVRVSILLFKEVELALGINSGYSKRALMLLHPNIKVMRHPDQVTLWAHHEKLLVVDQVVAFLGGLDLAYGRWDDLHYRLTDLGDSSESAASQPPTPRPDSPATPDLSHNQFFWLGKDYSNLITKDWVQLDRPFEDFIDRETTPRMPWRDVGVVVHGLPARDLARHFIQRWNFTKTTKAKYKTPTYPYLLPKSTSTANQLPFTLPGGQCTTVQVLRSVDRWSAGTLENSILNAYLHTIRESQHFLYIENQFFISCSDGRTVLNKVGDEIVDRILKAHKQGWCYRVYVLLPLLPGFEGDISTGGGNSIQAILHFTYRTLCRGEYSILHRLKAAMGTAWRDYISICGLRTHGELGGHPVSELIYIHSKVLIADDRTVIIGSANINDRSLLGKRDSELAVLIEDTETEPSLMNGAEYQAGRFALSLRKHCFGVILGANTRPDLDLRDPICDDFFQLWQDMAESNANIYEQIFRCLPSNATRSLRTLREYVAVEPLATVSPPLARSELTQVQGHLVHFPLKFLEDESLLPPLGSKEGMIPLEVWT

Phospholipase D1 = Phospholipase D1 (Homo sapiens, UniProt Q13393); assay: PLD1 Cellular Concentration Response Study.; assay type: functional
Sequence of Phospholipase D1 (Q13393 whole entry): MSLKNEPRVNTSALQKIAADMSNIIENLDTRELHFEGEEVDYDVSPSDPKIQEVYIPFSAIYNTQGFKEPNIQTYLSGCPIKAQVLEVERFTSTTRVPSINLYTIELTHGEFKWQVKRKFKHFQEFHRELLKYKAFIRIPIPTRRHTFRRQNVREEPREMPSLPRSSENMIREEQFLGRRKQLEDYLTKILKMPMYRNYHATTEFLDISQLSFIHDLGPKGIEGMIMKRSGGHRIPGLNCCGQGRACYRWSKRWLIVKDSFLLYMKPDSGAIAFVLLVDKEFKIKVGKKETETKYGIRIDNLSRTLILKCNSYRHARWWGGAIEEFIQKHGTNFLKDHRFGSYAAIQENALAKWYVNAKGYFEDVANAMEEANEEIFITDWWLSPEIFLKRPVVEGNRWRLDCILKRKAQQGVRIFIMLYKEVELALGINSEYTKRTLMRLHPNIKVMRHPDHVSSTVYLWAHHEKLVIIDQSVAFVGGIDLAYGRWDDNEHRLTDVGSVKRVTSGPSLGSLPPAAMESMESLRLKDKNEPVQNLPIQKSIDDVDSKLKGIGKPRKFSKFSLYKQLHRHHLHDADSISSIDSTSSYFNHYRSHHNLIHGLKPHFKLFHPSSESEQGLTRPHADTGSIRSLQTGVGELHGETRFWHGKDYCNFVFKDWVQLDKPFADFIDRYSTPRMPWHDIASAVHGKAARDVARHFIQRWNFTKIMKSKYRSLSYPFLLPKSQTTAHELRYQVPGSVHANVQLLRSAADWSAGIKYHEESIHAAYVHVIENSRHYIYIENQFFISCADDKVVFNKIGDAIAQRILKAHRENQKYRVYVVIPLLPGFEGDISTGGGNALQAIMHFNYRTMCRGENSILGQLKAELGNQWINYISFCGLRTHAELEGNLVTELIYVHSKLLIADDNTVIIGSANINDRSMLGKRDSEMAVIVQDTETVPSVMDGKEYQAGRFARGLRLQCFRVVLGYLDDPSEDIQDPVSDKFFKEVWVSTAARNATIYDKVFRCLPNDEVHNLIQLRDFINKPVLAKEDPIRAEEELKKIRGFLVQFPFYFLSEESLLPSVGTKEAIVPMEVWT

## COC(=O)C1=C(C)NC(=O)/C1=C\c1cc(C)n(-c2cccc(C)c2)c1C
[1]
  CC50: 16 µM (active)
[2]
  CC50: > 40 µM (active)
[3]
  IC50: > 100 µM (active)

## CC(C)CC1NC(=S)N(Cc2ccccc2)C1=O (centres undefined)
[4]
  AC50: 33.9 µM (active)
[5]
  AC50: 94 µM (active)
[6]
  AC50: 46.8 µM (active)
[7]
  AC50: 29.2 µM (active)
Paired box protein Pax-8
  AC50: 6.46 µM (active)
[8]
  AC50: 18.8 µM (active)
[9]
  AC50: 43 µM (active)
[10]
  AC50: 21.4 µM (active)
[11]
  AC50: 15.9 µM (active)

## CCCCCC(=O)N1C[C@@H](n2cc(C3CC3)nn2)[C@H](O)C[C@@H]1c1ccc(C)cc1
[12]
  CC50: > 40 µM (active)

## C[C@@H]1CN([C@@H](C)CO)S(=O)(=O)c2ccc(C#CC3CC3)cc2O[C@H]1CN(C)CC1CCOCC1
[13]
  AC50: 31.7 µM (active)
HEK293
  AC50: 31.7 µM (active)
HeLa
  AC50: > 52 µM (inactive)

## CC(C)CNc1ccnc(NCc2csc(-c3ccccc3)n2)n1
[14]
  AC50: 4.74 µM (active)
[15]
  AC50: 5.54 µM (active)

## C#CCn1cc(/C=N/NC(=O)c2cc3ccccc3o2)c2ccccc21
Fibrinogen beta chain [16]
  IC50: > 83.3 µM (inactive)
Fibrinogen beta chain [17]
  IC50: > 83.3 µM (inactive)
[18]
  EC50: 0.544 µM (active)

## Cc1noc(C)c1NC(=O)Nc1ccc2c(c1)C(=O)N([C@@H](C)CN(C)C)C[C@@H](C)[C@H](CN(C)S(=O)(=O)c1ccc(F)cc1)OCCCC[C@H](C)O2
[19]
  AC50: 0.0289 µM (active)

## O=C(NCCN1CCC2(CC1)C(=O)NCN2C(=O)C1CCC1)c1ccc2ccccc2c1
Phospholipase D2
  IC50: 0.32 µM (active)
Phospholipase D1
  IC50: 4 µM (active)
